Among the test systems are U251 CNS; MCF7 breast; SN12C renal; ACHN renal; K-562 leukemia; MALME-3M melanoma; NCI-H522 lung; 786-0 renal; NCI-H226 lung; A549 NSCLC.
What all share (assay): NCI tumour cell line growth inhibition, 48 h

Each structure is given as a SMILES string.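 Cells were grown in 96-well plates and exposed to each compound for 48 hours at five concentrations; endpoints were interpolated linearly between bracketing concentrations, or set to the highest concentration if not reached. GI50 = concentration required for 50% inhibition of growth. The concentration for full growth arrest is given as TGI.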

For `Nc1cc2c(nnn2C2OC(COCc3ccccc3)C(OCc3ccccc3)C2OCc2ccccc2)c(=O)[nH]1` (stereo unspecified), the TGI is above 100 µM with U251 CNS; 83.9 µM with MCF7 breast; 40.3 µM with SN12C renal; above 100 µM with ACHN renal; 84.6 µM in the assay on K-562 leukemia; above 100 µM in the assay on MALME-3M melanoma. Also, the TGI in the assay with NCI-H522 lung was above 100 µM; in the assay on 786-0 renal it was above 100 µM; in the assay on NCI-H226 lung, 53.7 µM; with A549 NSCLC, above 100 µM.
With `CCCCCCNC(=O)c1cc(CCc2cc(O)ccc2O)ccc1O`, the TGI with U251 CNS was found to be 5.58 µM; with MCF7 breast it was 12.4 µM; in the assay on SN12C renal, 5.77 µM; in the assay with ACHN renal, 7.68 µM; in the assay with K-562 leukemia it was 8.87 µM; with MALME-3M melanoma it was 6.47 µM. The TGI with NCI-H522 lung came to 3.05 µM; with 786-0 renal, 4.26 µM; in the assay with NCI-H226 lung it was 19.8 µM; with A549 NSCLC, 36.3 µM. In addition, the GI50 with SN12C renal was 2.18 µM.
For the compound `C/C(=C\c1ccccc1)C(=O)NCc1ccc(C(=O)NCCC(C)C)cc1`, the TGI in the assay with U251 CNS, in the assay with MCF7 breast, in the assay on SN12C renal, with ACHN renal, with K-562 leukemia and in the assay with MALME-3M melanoma was above 100 µM each time. The TGI with NCI-H522 lung, in the assay on 786-0 renal, in the assay with NCI-H226 lung and with A549 NSCLC was above 100 µM in each case.
In the case of `O=C1CS(=O)(=O)C(c2cccc(Oc3ccccc3)c2)N1c1cccc(Cl)c1` (stereo unspecified), the TGI with U251 CNS is 47.2 µM; in the assay with MCF7 breast, 32.4 µM; with SN12C renal, above 100 µM; with ACHN renal it was 59.5 µM; in the assay with K-562 leukemia, 52.1 µM; with MALME-3M melanoma, 52.6 µM. Besides, the TGI in the assay with NCI-H522 lung is 45.2 µM; in the assay with 786-0 renal, 40.3 µM; in the assay on NCI-H226 lung, above 100 µM; with A549 NSCLC, above 100 µM.
On to `O=S1(=O)C(c2ccccc2)C(N2CCCCC2)C1C1CC2c3ccccc3C1c1ccccc12` (stereo unspecified), for which the TGI in the assay with U251 CNS, in the assay with MCF7 breast, in the assay with SN12C renal, with ACHN renal, with K-562 leukemia and in the assay on MALME-3M melanoma was above 100 µM each time. The TGI in the assay on NCI-H522 lung, with 786-0 renal, in the assay with NCI-H226 lung and in the assay with A549 NSCLC was above 100 µM throughout.
On to `CCN(CC)CCCC(C)Nc1ccnc2cc3ccccc3cc12` (stereo unspecified), for which the TGI in the assay on U251 CNS is 42.1 µM; with MCF7 breast it was 39 µM; with SN12C renal it was above 100 µM; in the assay with ACHN renal, 21 µM; with K-562 leukemia, above 100 µM; in the assay on MALME-3M melanoma, 45.1 µM. Also, the TGI with NCI-H522 lung is 29 µM; with 786-0 renal, above 100 µM; in the assay on NCI-H226 lung, above 100 µM; with A549 NSCLC, above 100 µM.
With `N#CC(c1ccnc(Cl)n1)c1nc2ccccc2s1` (stereo unspecified), the TGI in the assay with U251 CNS is 13.3 µM; with MCF7 breast it was 40.6 µM; in the assay on SN12C renal it was 10.1 µM; with ACHN renal, above 94 µM; with K-562 leukemia, 76.2 µM; in the assay with MALME-3M melanoma, above 26.5 µM. The TGI with NCI-H522 lung was 11.1 µM; in the assay with 786-0 renal it was 16.1 µM; with NCI-H226 lung, above 47.4 µM; in the assay with A549 NSCLC, 52.4 µM.
Turning to `Nc1ccc(-c2cssc2=S)cc1`, the TGI in the assay on U251 CNS was above 100 µM; with MCF7 breast, above 100 µM; in the assay on SN12C renal it was 94.6 µM; in the assay with ACHN renal, above 100 µM; with K-562 leukemia it was above 100 µM; in the assay on MALME-3M melanoma, above 100 µM. The TGI in the assay with NCI-H522 lung, in the assay with 786-0 renal, in the assay on NCI-H226 lung and with A549 NSCLC was above 100 µM in each case.
As to `CC(C)CCC[C@@H](C)[C@H]1CC[C@H]2[C@@H]3CC[C@H]4C[C@H](N)CC[C@]4(C)[C@H]3CC[C@]12C`, the TGI is 43.8 µM with U251 CNS; 68.4 µM with MCF7 breast; above 100 µM with SN12C renal; 36.2 µM in the assay with ACHN renal; above 100 µM with K-562 leukemia; 38.7 µM in the assay with MALME-3M melanoma. In addition, the TGI in the assay with NCI-H522 lung was 99.7 µM; in the assay on 786-0 renal it was above 100 µM; in the assay on NCI-H226 lung, 49.2 µM; in the assay with A549 NSCLC, 48.1 µM.
With `CC(=O)c1c(SCCN2CCCC2)n(-c2ccccc2)c(=S)n(-c2ccccc2)c1=O`, the TGI in the assay on U251 CNS was 47.9 µM; in the assay on MCF7 breast it was 3.01 µM; with SN12C renal it was 20.5 µM; in the assay on ACHN renal it was 3.46 µM; with K-562 leukemia, above 26.7 µM; in the assay on MALME-3M melanoma, 12.2 µM. Moreover, the TGI in the assay on NCI-H522 lung is 8.31 µM; in the assay with 786-0 renal, 3.12 µM; in the assay with NCI-H226 lung it was 54.1 µM; in the assay with A549 NSCLC it was 15.1 µM.
Turning to `CC(=O)Nc1ccc(N=C2C(c3ccccc3)=C(SC3=C(c4ccccc4)C(=Nc4ccc(NC(C)=O)cc4)c4ccccc43)c3ccccc32)cc1`, the TGI with U251 CNS, with MCF7 breast, in the assay with SN12C renal, with ACHN renal, in the assay on K-562 leukemia and in the assay on MALME-3M melanoma was above 100 µM in each case. The TGI in the assay on NCI-H522 lung is 97.7 µM; with 786-0 renal it was above 100 µM; with NCI-H226 lung, above 100 µM; with A549 NSCLC it was above 100 µM.
Consider `CO/C=C(/C(=O)OC)c1ccccc1[C@@H]1CC1c1cccc(F)c1` (stereo partly specified), for which the TGI in the assay with U251 CNS was above 100 µM; in the assay on MCF7 breast it was above 100 µM; with SN12C renal it was 98.4 µM; in the assay with ACHN renal, 62.7 µM; in the assay on K-562 leukemia, above 100 µM; in the assay with MALME-3M melanoma, 45.9 µM. Besides, the TGI is 35.3 µM in the assay on NCI-H522 lung, above 100 µM with 786-0 renal, above 100 µM in the assay with NCI-H226 lung and 78.5 µM with A549 NSCLC.
For the compound `CC(=O)Oc1c(C)c2c(O)c3c1C1=C(OCOC1=C(C)C3=O)/C(C)=C\C(C)(O)C(O)C(C)C(O)C1C(=O)OC(C(C)C1O)C(C)(O)/C=C/C=C(C)C(=O)N2` (stereo unspecified), the TGI in the assay with U251 CNS, in the assay on MCF7 breast, with SN12C renal, in the assay with ACHN renal, in the assay with K-562 leukemia and in the assay on MALME-3M melanoma was above 100 µM throughout. Besides, the TGI with NCI-H522 lung was above 100 µM; with 786-0 renal, above 100 µM; in the assay on NCI-H226 lung, 75.7 µM; with A549 NSCLC it was above 100 µM.

The record behind these values is PubChem BioAssay (NCI).
